According to ChEMBL document CHEMBL1156075, “5,5'- and 6,6'-dialkyl-5,6-dihydro-1H-pyridin-2-ones as potent inhibitors of HCV NS5B polymerase” (Bioorg Med Chem Lett, 2009):

Assays:
[1] = in vitro; details: human, Huh7/C24 cells
Description: Cytotoxicity against human Huh7/C24 cells after 72 hrs by bDNA assay

[2] = in vitro; details: human, liver microsomes
[3] = system: Hepatitis C virus; test: microbe, parasite or virus in culture; details: genotype 1b, Huh-7, 72 h
[4] = in vitro; details: human, liver microsomes; remark: listed apart in the source
[5] = in vitro; details: human, liver microsomes; remark: listed apart in the source
[6] = Apparent permeability from apical to basolateral side in human Caco-2 cells at 10 uM after 3 hrs; type: ADME, cell-based
[7] = Oral bioavailability in cynomolgus monkey at 1 mg/kg, po; type: ADME, organism-based, Macaca fascicularis; details: in vivo
[8] = Clearance in cynomolgus monkey at 1 […]; type: ADME, organism-based, Macaca fascicularis; parameters: dose 1 mg/kg; details: in vivo
[9] = Clearance in cynomolgus monkey at 1 mg/kg, iv; type: ADME, organism-based, Macaca fascicularis; parameters: dose 1 mg/kg, route intravenous; details: in vivo
[10] = system: Cynomolgus monkey; details: in vivo, po, 1 mg/kg
[11] = system: Cynomolgus monkey; details: in vivo, iv, 1 mg/kg
[12] = in vitro; details: cynomolgus monkey, liver microsomes

| SMILES | half-life at 5 µM [2] [min] | EC50 [3] [µM] | CC50 at 72 h [1] [µM] | further results |
| --- | --- | --- | --- | --- |
| C#CC[C@]1(C)CN(C2CCCC2)C(=O)C(C2=NS(=O)(=O)c3cc(NS(C)(=O)=O)ccc3N2)=C1O | 43 | 2.9 | > 33 |  |
| CC(C)CC[C@@]1(C)CN(Cc2ccc(F)cc2)C(=O)C(C2=NS(=O)(=O)c3cc(NS(C)(=O)=O)ccc3N2)=C1O | 5.7 | 0.77 | > 33 |  |
| CC1(C)CN(Cc2ccc(F)cc2)C(=O)C(C2=NS(=O)(=O)c3cc(NS(C)(=O)=O)ccc3N2)=C1O | > 60 | 1.3 | > 33 |  |
| CC[C@@H]1CC(O)=C(C2=NS(=O)(=O)c3cc(NS(C)(=O)=O)ccc3N2)C(=O)N1Cc1ccc(F)cc1 | > 60 | 0.97 |  |  |
| CS(=O)(=O)Nc1ccc2c(c1)S(=O)(=O)N=C(C1=C(O)C[C@H](c3ccccc3)N(Cc3ccc(F)cc3)C1=O)N2 | > 60 | 0.66 | > 10 |  |
| CC(C)(C)CC[C@]1(C)CN(C2CCCCC2)C(=O)C(C2=NS(=O)(=O)c3cc(NS(C)(=O)=O)ccc3N2)=C1O |  | 1.4 | > 10 | half-life at 5 µM [4]: > 60 min; half-life at 5 µM [5]: 1.4 min |
| CC(C)=CC[C@H]1CN(Cc2ccc(F)cc2)C(=O)C(C2=NS(=O)(=O)c3cc(NS(C)(=O)=O)ccc3N2)=C1O | 6.9 | 0.67 | > 33 |  |
| CS(=O)(=O)Nc1ccc2c(c1)S(=O)(=O)N=C(C1=C(O)C3(CCC3)CN(Cc3ccc(F)cc3)C1=O)N2 | > 60 | 0.77 | > 33 |  |
| CS(=O)(=O)Nc1ccc2c(c1)S(=O)(=O)N=C(C1=C(O)CC3(CCCC3)N(Cc3ccc(F)cc3)C1=O)N2 | > 60 | 0.84 | > 33 |  |
| CS(=O)(=O)Nc1ccc2c(c1)S(=O)(=O)N=C(C1=C(O)C3(CC3)CN(Cc3ccc(F)cc3)C1=O)N2 | > 60 | 0.55 | > 1 |  |
| C[C@@]1(Cc2ccc(F)cc2)CN(C2CC2)C(=O)C(C2=NS(=O)(=O)c3cc(NS(C)(=O)=O)ccc3N2)=C1O |  | 2.1 | > 33 |  |
| CS(=O)(=O)Nc1ccc2c(c1)S(=O)(=O)N=C(C1=C(O)[C@@H](Cc3ccc(F)cc3)CN(Cc3ccc(F)cc3)C1=O)N2 | > 60 | 3.6 | > 33 |  |
| CCCC[C@]1(C)CN(C2CCC2)C(=O)C(C2=NS(=O)(=O)c3cc(NS(C)(=O)=O)ccc3N2)=C1O |  | > 10 |  | half-life at 5 µM [4]: > 60 min; half-life at 5 µM [5]: 3 min |
| CC(C)CC[C@@H]1CC(O)=C(C2=NS(=O)(=O)c3cc(NS(C)(=O)=O)ccc3N2)C(=O)N1Cc1ccc(F)cc1 | 7.6 | 5.5 |  |  |
| CC(C)CC[C@]1(C)CN(C2CCCC2)C(=O)C(C2=NS(=O)(=O)c3cc(NS(C)(=O)=O)ccc3N2)=C1O | > 2.6 |  | > 33 |  |
| CC(C)C[C@@H]1CC(O)=C(C2=NS(=O)(=O)c3cc(NS(C)(=O)=O)ccc3N2)C(=O)N1Cc1ccc(F)cc1 | > 60 | 2.9 |  |  |
| CCC[C@]1(C)CN(C2CCC2)C(=O)C(C2=NS(=O)(=O)c3cc(NS(C)(=O)=O)ccc3N2)=C1O |  | 8.5 |  | half-life at 5 µM [4]: > 60 min; half-life at 5 µM [5]: 2.8 min |
| CC(C)CC[C@]1(C)CN(c2ccccc2)C(=O)C(C2=NS(=O)(=O)c3cc(NS(C)(=O)=O)ccc3N2)=C1O | > 2.3 |  |  |  |
| C[C@@]1(Cc2ccc(F)cc2)CN(C2CCCC2)C(=O)C(C2=NS(=O)(=O)c3cc(NS(C)(=O)=O)ccc3N2)=C1O |  | 14 | > 33 |  |
| CC(C)(C)[C@H]1CC(O)=C(C2=NS(=O)(=O)c3cc(NS(C)(=O)=O)ccc3N2)C(=O)N1Cc1ccc(F)cc1 | > 60 | 0.81 | > 10 |  |
| CS(=O)(=O)Nc1ccc2c(c1)S(=O)(=O)N=C(C1=C(O)C3(CCCC3)CN(Cc3ccc(F)cc3)C1=O)N2 | 28 | 2.1 | > 33 |  |
| CS(=O)(=O)Nc1ccc2c(c1)S(=O)(=O)N=C(C1=C(O)CCN(Cc3ccc(F)cc3)C1=O)N2 | > 60 | 3.9 | > 33 |  |

Continued, in another order:

| half-life at 5 µM [2] [min] | EC50 [3] [µM] | SMILES | CC50 at 72 h [1] [µM] | further results |
| --- | --- | --- | --- | --- |
| 10 | 0.33 | CC(C)(C)CC[C@]1(C)CN(C2CC2)C(=O)C(C2=NS(=O)(=O)c3cc(NS(C)(=O)=O)ccc3N2)=C1O | > 10 |  |
| 59 | 0.31 | CCC(CC)[C@@H]1CC(O)=C(C2=NS(=O)(=O)c3cc(NS(C)(=O)=O)ccc3N2)C(=O)N1Cc1ccc(F)cc1 | > 1 |  |
| 5.5 | 0.097 | CC(C)CC[C@]1(C)CN(C2CC2)C(=O)C(C2=NS(=O)(=O)c3cc(NS(C)(=O)=O)ccc3N2)=C1O | > 33 |  |
| > 3.6 | 0.025 | CC(C)CC[C@]1(C)CN(C2CCCCC2)C(=O)C(C2=NS(=O)(=O)c3cc(NS(C)(=O)=O)ccc3N2)=C1O | > 33 |  |
| 6.5 | 0.49 | CC(C)CC[C@H]1CN(Cc2ccc(F)cc2)C(=O)C(C2=NS(=O)(=O)c3cc(NS(C)(=O)=O)ccc3N2)=C1O | > 33 |  |
| 2.2 | 0.014 | CC(C)CC[C@]1(C)CN(C2CCC2)C(=O)C(C2=NS(=O)(=O)c3cc(NS(C)(=O)=O)ccc3N2)=C1O | > 10 | Papp A→B at 3 h, 10 µM [6]: 2.9 ×10⁻⁶ cm/s; bioavailability [7]: 16%; CL/F [8]: 4.7 mL/min/kg; clearance [9]: 4.7 mL/min/kg; AUC [10]: 556 ng·h/mL; AUC [11]: 3560 ng·h/mL; half-life at 5 µM [12]: 55 min |
| 32 | 0.043 | CC(C)CC[C@@H]1CN(C2CCCC2)C(=O)C(C2=NS(=O)(=O)c3cc(NS(C)(=O)=O)ccc3N2)=C1O | > 33 |  |
|  | 0.46 | CC(C)(C)CC[C@]1(C)CN(C2CCC2)C(=O)C(C2=NS(=O)(=O)c3cc(NS(C)(=O)=O)ccc3N2)=C1O | > 1 | half-life at 5 µM [4]: > 60 min; half-life at 5 µM [5]: 3 min |
| > 60 | 0.016 | CS(=O)(=O)Nc1ccc2c(c1)S(=O)(=O)N=C(C1=C(O)[C@@H]3CCC[C@@H]3N(Cc3ccc(F)cc3)C1=O)N2 | > 100 | Papp A→B at 3 h, 10 µM [6]: 1.6 ×10⁻⁶ cm/s; bioavailability [7]: 21%; CL/F [8]: 0.63 mL/min/kg; clearance [9]: 0.63 mL/min/kg; AUC [10]: 6040 ng·h/mL; AUC [11]: 29100 ng·h/mL; half-life at 5 µM [12]: > 60 min |
|  | 0.31 | CC(C)(C)CC[C@]1(C)CN(C2CCCC2)C(=O)C(C2=NS(=O)(=O)c3cc(NS(C)(=O)=O)ccc3N2)=C1O | > 10 | half-life at 5 µM [4]: > 60 min; half-life at 5 µM [5]: 1.6 min |
|  | 0.3 | CC[C@@]1(CCC(C)C)CN(C2CCCC2)C(=O)C(C2=NS(=O)(=O)c3cc(NS(C)(=O)=O)ccc3N2)=C1O | > 1 | half-life at 5 µM [4]: > 60 min; half-life at 5 µM [5]: 3 min |
| > 60 | 0.2 | C[C@]1(CC2CC2)CN(Cc2ccc(F)cc2)C(=O)C(C2=NS(=O)(=O)c3cc(NS(C)(=O)=O)ccc3N2)=C1O | > 33 |  |
|  | 0.17 | C[C@@]1(CCC2CC2)CN(C2CCCC2)C(=O)C(C2=NS(=O)(=O)c3cc(NS(C)(=O)=O)ccc3N2)=C1O | > 10 | half-life at 5 µM [4]: > 60 min; half-life at 5 µM [5]: 3.7 min |
|  | 0.15 | C[C@@]1(CCC2CC2)CN(C2CCC2)C(=O)C(C2=NS(=O)(=O)c3cc(NS(C)(=O)=O)ccc3N2)=C1O | > 1 | half-life at 5 µM [4]: > 60 min; half-life at 5 µM [5]: 5.1 min |
| > 60 | 0.52 | CS(=O)(=O)Nc1ccc2c(c1)S(=O)(=O)N=C(C1=C(O)C[C@@H](c3ccc(F)cc3)N(Cc3ccc(F)cc3)C1=O)N2 | > 10 |  |
| > 60 | 0.083 | CC[C@H]1CC(O)=C(C2=Nc3ccc(NS(C)(=O)=O)cc3S(=O)(=O)N2)C(=O)N1Cc1ccc(F)cc1 | > 1 |  |
| > 60 | 0.045 | CC(C)[C@H]1CC(O)=C(C2=NS(=O)(=O)c3cc(NS(C)(=O)=O)ccc3N2)C(=O)N1Cc1ccc(F)cc1 | > 1 |  |
| > 60 | 0.16 | CC[C@@]1(C)CN(Cc2ccc(F)cc2)C(=O)C(C2=NS(=O)(=O)c3cc(NS(C)(=O)=O)ccc3N2)=C1O | > 1 |  |
| 35 | 0.24 | CC(C)/C=C/C[C@@H]1CN(C2CCCC2)C(O)C(C2=NS(=O)(=O)c3cc(NS(C)(=O)=O)ccc3N2)=C1O (stereo not given in full) | > 33 |  |
